Measurements as given in patent US12281057B2 (VERTEX PHARMACEUTICALS INCORPORATED, priority 2017, dated 2025).

Biological target: truncated form of human NaV 1.8 with full channel activity (Homo sapiens, UniProt Q9Y5Y9)
Assay: E-VIPR Assay Method A for detecting and measuring Nav inhibition (HEK cells, membrane potential FRET dyes, electrical stimulation)
Format: cell-based
Conditions: HEK cells expressing human NaV 1.8, HS (human serum) in compound loading buffer, 11 point dose response, top dose 3 μM, Table 20, read-out: Nav 1.8 MedChem Optical Assay EVIPR Assay Method A HS IC50
From the text: E-VIPR Assay Method A for Detecting and Measuring Nav Inhibition Properties Sodium ion channels are voltage-dependent proteins that can be activated by inducing membrane voltage changes by applying electric fields. The electrical stimulation instrument and methods of use, referred to as E-VIPR, are described in International Publication No. WO 2002/008748 A3 and C.-J. Huang et al. Characterization of voltage-gated sodium channel blockers by electrical stimulation and fluorescence detection of membrane potential, 24 Nature Biotech. 439-46 (2006), both of which are incorporated by reference in their entirety. The instrument comprises a microtiter plate handler, an optical system for exciting the coumarin dye while simultaneously recording the coumarin and oxonol emissions, a waveform generator, a current- or voltage-controlled amplifier, and parallel electrode pairs that are inserted into assay plate wells. Under integrated computer control, this instrument passes user-programmed electrical stimulus protocols to cells within the wells of the microtiter plate. […] Sigma #F4135), 1% NEAA (Non-Essential Amino Acids, Life Tech #11140), 1% HEPES (Life Tech #15630), 1% Pen-Strep (Penicillin-Streptomycin; […] Cells were expanded in vented cap flasks, with 95% humidity and 5% CO2. Reagents and Stock Solutions: • 100 mg/mL Pluronic F-127 (Sigma #P2443), in dry DMSO • Compound Plates: […] 5% KIR 2.1 Bacmam virus (produced in-house), prepared as described in Section 3.3 of J. A. […] The solution was made by adding 10% Pluronic F127 stock equal to combined volumes of CC2-DMPE and DiSBAC6(3). The order of preparation was first mix Pluronic and CC2-DMPE, then add DiSBAC6(3), then while vortexing add Bath1/β-Cyclodextrin. […] Assay Protocol: […] Final DMSO concentration for all wells in the assay was 0.625% (0.75% DMSO was supplemented to the Compound Loading Buffer for a final DMSO concentration of 0.625%). […] 3) Cell plates were prepared. On the day of the assay, the media was aspirated, and the cells were washed three times with 80 μL of Bath-1 buffer, maintaining 25 μL residual volume in each well. 4) 25 μL per well of Hexyl Dye Solution was dispensed into the cell plates. The cells were incubated for 20 minutes at room temp or ambient conditions in darkness. 5) 80 μL per well of Compound Loading Buffer was dispensed into compound plates. 6) The cell plates were washed three times with 80 μL per well of Bath-1 Buffer, leaving 25 µL of residual volume. Then 25 uL per well from compound plate was transferred to each cell plate. The mixture was incubated for 30 minutes at room temp/ambient conditions. 7) The plate was read on E-VIPR using the current-controlled amplifier to deliver stimulation wave pulses using the following protocol: 1.25 Amps, 2.5 ms pulse width biphasic waveform, 10 Hz for 10 seconds at a scan rate of 200 Hz. A pre-stimulus recording was performed for 0.5 seconds to obtain the un-stimulated intensities baseline. The stimulatory waveform was followed by 0.5 seconds of post-stimulation recording to examine the relaxation to the resting state. Data Analysis: Data were analyzed and reported as normalized ratios of emission intensities measured in the 460 nm and 580 nm channels. The response as a function of time was reported as the ratios obtained using the following formula: […] The data were further reduced by calculating the initial (Ri) and final (Rf) ratios. These were the average ratio values during part or all of the pre-stimulation period and during sample points during the stimulation period. The fluorescence ratio (Rf/Ri) was then calculated and reported as a function of time. Control responses were obtained by performing assays in the presence of the positive control, and in the absence of pharmacological agents (DMSO vehicle negative control). Responses to the negative (N) and positive (P) controls were calculated as above. The compound antagonist % activity A was then defined as: [formula] where X is the ratio response of the test compound. […]

truncated form of human NaV 1.8 with full channel activity, sequence (Q9Y5Y9 126-1722 limits assumed): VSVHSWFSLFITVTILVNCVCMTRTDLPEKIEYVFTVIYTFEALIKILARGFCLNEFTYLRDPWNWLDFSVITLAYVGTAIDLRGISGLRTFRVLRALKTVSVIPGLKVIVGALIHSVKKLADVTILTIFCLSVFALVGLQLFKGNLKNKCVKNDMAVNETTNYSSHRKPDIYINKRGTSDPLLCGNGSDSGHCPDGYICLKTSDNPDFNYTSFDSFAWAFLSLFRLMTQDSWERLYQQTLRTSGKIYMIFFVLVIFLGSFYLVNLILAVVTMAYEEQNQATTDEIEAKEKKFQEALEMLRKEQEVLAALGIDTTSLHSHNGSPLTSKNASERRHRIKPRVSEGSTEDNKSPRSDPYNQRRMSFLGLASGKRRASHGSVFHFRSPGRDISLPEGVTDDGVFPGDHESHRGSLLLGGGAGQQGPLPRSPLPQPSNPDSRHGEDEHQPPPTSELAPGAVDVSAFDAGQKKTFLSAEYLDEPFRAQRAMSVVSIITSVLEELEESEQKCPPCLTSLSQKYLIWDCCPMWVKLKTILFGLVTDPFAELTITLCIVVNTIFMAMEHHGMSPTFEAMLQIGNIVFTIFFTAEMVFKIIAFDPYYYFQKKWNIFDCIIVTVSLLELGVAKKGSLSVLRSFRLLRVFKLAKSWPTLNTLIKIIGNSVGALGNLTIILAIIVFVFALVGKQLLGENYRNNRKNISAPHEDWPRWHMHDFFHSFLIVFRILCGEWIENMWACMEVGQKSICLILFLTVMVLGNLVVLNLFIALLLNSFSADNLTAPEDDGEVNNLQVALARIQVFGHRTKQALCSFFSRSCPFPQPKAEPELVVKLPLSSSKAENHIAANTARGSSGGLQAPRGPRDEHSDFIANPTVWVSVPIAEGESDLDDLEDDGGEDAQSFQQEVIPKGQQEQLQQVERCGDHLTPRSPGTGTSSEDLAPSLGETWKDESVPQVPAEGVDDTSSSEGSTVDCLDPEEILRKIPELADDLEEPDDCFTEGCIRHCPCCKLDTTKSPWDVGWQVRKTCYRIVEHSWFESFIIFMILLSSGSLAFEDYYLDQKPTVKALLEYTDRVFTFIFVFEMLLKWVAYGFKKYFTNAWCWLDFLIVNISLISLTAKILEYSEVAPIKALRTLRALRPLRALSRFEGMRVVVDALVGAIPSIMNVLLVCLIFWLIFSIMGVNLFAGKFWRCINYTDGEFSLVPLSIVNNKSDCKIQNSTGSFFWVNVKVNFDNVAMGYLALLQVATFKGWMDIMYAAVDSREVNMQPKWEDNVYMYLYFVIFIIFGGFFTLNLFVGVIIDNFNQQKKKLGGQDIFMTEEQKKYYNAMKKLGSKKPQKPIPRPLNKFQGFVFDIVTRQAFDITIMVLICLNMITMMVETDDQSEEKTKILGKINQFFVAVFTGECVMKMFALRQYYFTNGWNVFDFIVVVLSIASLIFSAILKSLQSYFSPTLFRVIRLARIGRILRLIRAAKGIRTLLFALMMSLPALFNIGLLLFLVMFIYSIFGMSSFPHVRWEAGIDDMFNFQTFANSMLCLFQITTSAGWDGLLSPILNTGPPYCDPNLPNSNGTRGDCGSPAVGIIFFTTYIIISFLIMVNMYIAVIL

IC50 [nM] | SMILES
3 | [2H]C([2H])([2H])Oc1cc(OC(F)(F)F)ccc1Oc1ccc(OC(F)(F)F)c(F)c1C(=O)Nc1ccnc(C(N)=O)c1 [Compound 8, 4-[[2-fluoro-6-[2-(trideuteriomethoxy)-4-(trifluoromethoxy)phenoxy]-3-(trifluoromethoxy)benzoyl]amino]pyridine-2-carboxamide]
7 | COc1cc(OC(F)(F)F)ccc1Oc1ccc(C(F)(F)F)c(F)c1C(=O)Nc1ccc(C(N)=O)c(F)c1 [Compound 16, N-(4-carbamoyl-3-fluoro-phenyl)-2-fluoro-6-[2-methoxy-4-(trifluoromethoxy)phenoxy]-3-(trifluoromethyl)benzamide]
18 | [2H]C([2H])([2H])Oc1cc(OC(F)(F)F)ccc1Oc1ccc(C(F)(F)F)c(F)c1C(=O)Nc1ccc(C(N)=O)nc1 [Compound 24, 5-[[2-fluoro-6-[2-(trideuteriomethoxy)-4-(trifluoromethoxy)phenoxy]-3-(trifluoromethyl)benzoyl]amino]pyridine-2-carboxamide]

Same assay, conditions: HEK cells expressing human NaV 1.8, HS (human serum) in compound loading buffer, 11 point dose response, top dose 3 μM, Table 20A, read-out: Nav 1.8 MedChem Optical Assay EVIPR Assay Method A HS IC50

IC50 [nM] | SMILES
32 | COc1cc(OC(F)(F)F)ccc1Oc1ccc(C(F)(F)F)c(F)c1C(=O)Nc1cc(C)nc(C(N)=O)c1 [Compound 86, 4-[[2-fluoro-6-[2-methoxy-4-(trifluoromethoxy)phenoxy]-3-(trifluoromethyl)benzoyl]amino]-6-methyl-pyridine-2-carboxamide]
38 | NC(=O)c1cc(NC(=O)c2c(Oc3ccc(OC(F)(F)F)cc3F)ccc(C(F)(F)F)c2F)ccn1 [Compound 90, 4-[[2-fluoro-6-[2-fluoro-4-(trifluoromethoxy)phenoxy]-3-(trifluoromethyl)benzoyl]amino]pyridine-2-carboxamide]
40 | NC(=O)c1cc(NC(=O)c2c(Oc3ccc(OC(F)(F)F)cc3)ccc(C3CC3)c2F)ccc1F [Compound 71, N-(3-Carbamoyl-4-fluoro-phenyl)-3-cyclopropyl-2-fluoro-6-[4-(trifluoromethoxy)phenoxy]benzamide]
290 | COc1cc(OC(F)(F)F)ccc1Oc1ccc(Cl)cc1C(=O)Nc1cc(C(N)=O)ncc1C [Compound 150, 4-[[5-Chloro-2-[2-methoxy-4-(trifluoromethoxy)phenoxy]benzoyl]amino]-5-methyl-pyridine-2-carboxamide]
64 | COc1cc(OC(F)(F)F)ccc1Oc1cc(C(C)(C)F)ncc1C(=O)Nc1ccnc(C(N)=O)c1 [Compound 104, N-(2-Carbamoyl-4-pyridyl)-6-(1-fluoro-1-methyl-ethyl)-4-[2-methoxy-4-(trifluoromethoxy)phenoxy]pyridine-3-carboxamide]
9 | [2H]C([2H])([2H])Oc1c(Oc2cc(Cl)cc(Cl)c2C(=O)Nc2ccnc(C(N)=O)c2)ccc(OC(F)(F)F)c1F [Compound 224, 4-[[2,4-Dichloro-6-[3-fluoro-2-(trideuteriomethoxy)-4-(trifluoromethoxy)phenoxy]benzoyl]amino]pyridine-2-carboxamide]
5 | [2H]C([2H])([2H])Oc1c(Oc2ccc(Cl)c(F)c2C(=O)Nc2ccnc(C(N)=O)c2)ccc(OC(F)(F)F)c1F [Compound 220, 4-[[3-Chloro-2-fluoro-6-[3-fluoro-2-(trideuteriomethoxy)-4-(trifluoromethoxy)phenoxy]benzoyl]amino]pyridine-2-carboxamide]
12 | [2H]C([2H])([2H])Oc1c(Oc2ccc(C(F)F)c(F)c2C(=O)Nc2cc(C(N)=O)ncc2C)ccc(OC(F)(F)F)c1F [Compound 237, 4-[[3-(Difluoromethyl)-2-fluoro-6-[3-fluoro-2-(trideuteriomethoxy)-4-(trifluoromethoxy)phenoxy]benzoyl]amino]-5-methyl-pyridine-2-carboxamide]
14 | COc1cc(OC(F)(F)F)ccc1Oc1ccc(C(F)(F)F)c(F)c1C(=O)Nc1cncc(C(N)=O)c1 [Compound 52, 5-[[2-fluoro-6-[2-methoxy-4-(trifluoromethoxy)phenoxy]-3-(trifluoromethyl)benzoyl]amino]pyridine-3-carboxamide]
2 | [2H]C([2H])([2H])Oc1c(Oc2ccc(C(F)(F)F)c(F)c2C(=O)Nc2ccnc(C(N)=O)c2)ccc(OC(F)(F)F)c1F [Compound 218, 4-[[2-Fluoro-6-[3-fluoro-2-(trideuteriomethoxy)-4-(trifluoromethoxy)phenoxy]-3-(trifluoromethyl)benzoyl]amino]pyridine-2-carboxamide]
190 | COc1nc(Cl)ccc1Oc1ccc(C(F)(F)F)c(F)c1C(=O)Nc1ccnc(C(N)=O)c1 [Compound 303, 4-(6-((6-chloro-2-methoxypyridin-3-yl)oxy)-2-fluoro-3-(trifluoromethyl)benzamido)picolinamide]
55 | NC(=O)c1cc(NC(=O)c2c(Oc3ccc(OC(F)(F)F)cc3)ccc(C(F)(F)F)c2F)cc[n+]1[O-] [Compound 110, 4-[[2-Fluoro-6-[4-(trifluoromethoxy)phenoxy]-3-(trifluoromethyl)benzoyl]amino]-1-oxido-pyridin-1-ium-2-carboxamide]
130 | NC(=O)c1cccc(NC(=O)c2c(Oc3ccc(F)cc3)ccc(C(F)(F)F)c2F)c1 [Compound 49, N-(3-carbamoylphenyl)-2-fluoro-6-(4-fluorophenoxy)-3-(trifluoromethyl)benzamide]
2700 | COc1cc(OC(F)(F)F)ccc1Oc1cc(C(F)(F)F)ncc1C(=O)Nc1ccc(OC)c(C(N)=O)c1 [Compound 239, N-(3-carbamoyl-4-methoxy-phenyl)-4-[2-methoxy-4-(trifluoromethoxy)phenoxy]-6-(trifluoromethyl)pyridine-3-carboxamide]
500 | NC(=O)c1ccc(NC(=O)c2c(Cl)cc(Cl)cc2Oc2ccc(OC(F)(F)F)cc2)cn1 [Compound 184, 5-[[2,4-Dichloro-6-[4-(trifluoromethoxy)phenoxy]benzoyl]amino]pyridine-2-carboxamide]
11 | NC(=O)c1cc(NC(=O)c2c(Oc3ccc(OC(F)(F)F)cc3)cnc(C(F)(F)F)c2F)ccc1F [Compound 62, N-(3-Carbamoyl-4-fluoro-phenyl)-3-fluoro-5-[4-(trifluoromethoxy)phenoxy]-2-(trifluoromethyl)pyridine-4-carboxamide]
103 | NC(=O)c1cc(NC(=O)c2c(Oc3ccc(OC(F)(F)F)c(O)c3)ccc(C(F)(F)F)c2F)ccc1F [Compound 141, N-(3-Carbamoyl-4-fluoro-phenyl)-2-fluoro-6-[3-hydroxy-4-(trifluoromethoxy)phenoxy]-3-(trifluoromethyl)benzamide]
1200 | COc1cc(OC(F)(F)F)ccc1Oc1cnc(C2CC2)c(F)c1C(=O)Nc1ccc(F)c(C(N)=O)c1 [Compound 46, N-(3-Carbamoyl-4-fluoro-phenyl)-2-cyclopropyl-3-fluoro-5-[2-methoxy-4-(trifluoromethoxy)phenoxy]pyridine-4-carboxamide]
79 | NC(=O)c1ccc(NC(=O)c2c(Oc3ccc(OC(F)(F)F)cc3)ccc(C(F)(F)F)c2F)cc1F [Compound 65, N-(4-Carbamoyl-3-fluoro-phenyl)-2-fluoro-6-[4-(trifluoromethoxy)phenoxy]-3-(trifluoromethyl)benzamide]
140 | COc1c(C(F)(F)F)ccc(Oc2ccc(OC(F)(F)F)cc2)c1C(=O)Nc1ccc(C(N)=O)c(F)c1 [Compound 132, N-(4-Carbamoyl-3-fluoro-phenyl)-2-methoxy-6-[4-(trifluoromethoxy)phenoxy]-3-(trifluoromethyl)benzamide]
